Test results published in patent US10865216B2, “Tricyclic Gyrase inhibitors” (MERCK SHARP & DOHME CORP., priority 2012, dated 2020).
In brackets after ≈: the same amount, converted by molar mass.

Experiments:
S. aureus ATCC 13709 = test: MIC, S. aureus ATCC 13709; format: cell-based; conditions: S. aureus; Alamar Blue read after overnight incubation at 35° C.
E. coli ATCC 25922 = test: MIC, E. coli ATCC 25922; format: cell-based; conditions: E. coli; Alamar Blue read after overnight incubation at 35° C.

| Compound | MIC Sa (S. aureus ATCC 13709) | MIC Ec (E. coli ATCC 25922) |
| --- | --- | --- |
| CNc1cc(F)cc2c1[nH]c1nc(Oc3cnc4cccnc4c3)nc(N3CC4CC(N)CC4C3)c12 (stereo not shown) [Compound 4.046] | ≤0.5 µg/mL | 1 µg/mL (≈ 2.06 µM) |
| CNc1cc(F)cc2c1[nH]c1nc(Oc3cnc4cccnc4c3)nc(N3CC4NCCOC4C3)c12 (stereo not shown) [Compound 4.048] | ≤0.5 µg/mL | 1 µg/mL (≈ 2.06 µM) |
| CNc1cc(F)cc2c1[nH]c1nc(Oc3cncc(C#N)c3)nc(N3CC4C(N)C4C3)c12 (stereo not shown) [Compound 4.050] | ≤0.5 µg/mL | ≤0.5 µg/mL |
| CNc1cc(F)cc2c1[nH]c1nc(Oc3cncc(C#N)c3)nc(N3CC(N)C4(CC4)C3)c12 (stereo not shown) [Compound 4.051] | ≤0.5 µg/mL | 2 µg/mL (≈ 4.5 µM) |
| CNc1cc(F)cc2c1[nH]c1nc(Oc3cncc(C#N)c3)nc(N3CCC4(CC4N)C3)c12 (stereo not shown) [Compound 4.052] | ≤0.5 µg/mL | ≤0.5 µg/mL |
| CNc1cc(F)cc2c1[nH]c1nc(Oc3cncc(C#N)c3)nc(N3CC4CC(N)C4C3)c12 (stereo not shown) [Compound 4.053] | ≤0.5 µg/mL | ≤0.5 µg/mL |
| CNc1cc(F)cc2c1[nH]c1nc(Oc3cncc(C#N)c3)nc(N3CC4(CCC4N)C3)c12 (stereo not shown) [Compound 4.054] | ≤0.5 µg/mL | ≤0.5 µg/mL |
| CNc1cc(F)cc2c1[nH]c1nc(Oc3cncc(F)c3)nc(N3CC4C(N)C4C3)c12 (stereo not shown) [Compound 4.055] | ≤0.5 µg/mL | ≤0.5 µg/mL |
| CNc1cc(F)cc2c1[nH]c1nc(Oc3cncc(F)c3)nc(N3CC(N)C4(CC4)C3)c12 (stereo not shown) [Compound 4.056] | ≤0.5 µg/mL | ≤0.5 µg/mL |
| CNc1cc(F)cc2c1[nH]c1nc(Oc3cncc(F)c3)nc(N3CC(N)C4(CC4)C3)c12 (stereo not shown) [Compound 4.057] | ≤0.5 µg/mL | ≤0.5 µg/mL |
| CNc1cc(F)cc2c1[nH]c1nc(Oc3cncc(F)c3)nc(N3CC4(CCC4N)C3)c12 (stereo not shown) [Compound 4.061] | ≤0.5 µg/mL | ≤0.5 µg/mL |
| CNc1cc(F)cc2c1[nH]c1nc(Oc3cncc(F)c3)nc(N3CCC4(CC4N)C3)c12 (stereo not shown) [Compound 4.062] | ≤0.5 µg/mL | ≤0.5 µg/mL |
| CNc1cc(F)cc2c1[nH]c1nc(Oc3cnc(C)nc3)nc(N3CC(N)C4(CC4)C3)c12 (stereo not shown) [Compound 4.065] | ≤0.5 µg/mL | ≤0.5 µg/mL |
| CNc1cc(F)cc2c1[nH]c1nc(Oc3cnc(C)nc3)nc(N3CC4CNC4C3)c12 (stereo not shown) [Compound 4.067] | ≤0.5 µg/mL | ≤0.5 µg/mL |
| CNc1cc(F)cc2c1[nH]c1nc(Oc3cnc(C)nc3)nc(N3CC(N)C4(CC4)C3)c12 (stereo not shown) [Compound 4.068] | ≤0.5 µg/mL | ≤0.5 µg/mL |
| CNc1cc(F)cc2c1[nH]c1nc(Oc3cnc(C)nc3)nc(N3CCCC(N)CC3)c12 (stereo not shown) [Compound 4.071] | ≤0.5 µg/mL | 2 µg/mL (≈ 4.58 µM) |
| CNc1cc(F)cc2c1[nH]c1nc(Oc3cnc(C)nc3)nc(N3CC4C(C3)C4NC(=O)CN)c12 (stereo not shown) [Compound 4.078] | ≤0.5 µg/mL | 8 µg/mL (≈ 16.8 µM) |
| CNc1cc(F)cc2c1[nH]c1nc(Oc3cnc(C)nc3)nc(N3CC(C4(N)CC4)C3)c12 [Compound 4.080] | ≤0.5 µg/mL | 1 µg/mL (≈ 2.3 µM) |
| CNc1cc(F)cc2c1[nH]c1nc(Oc3cnc(C)nc3)nc(N3CCC(C4(N)CC4)C3)c12 (stereo not shown) [Compound 4.083] | ≤0.5 µg/mL | ≤0.5 µg/mL |

| Compound | MIC Sa (S. aureus ATCC 13709) | MIC Ec (E. coli ATCC 25922) |
| --- | --- | --- |
| CNc1cc(F)cc2c1[nH]c1nc(Oc3cnc(C)nc3)nc(N3CC(C)C(CN)C3)c12 (stereo not shown) [Compound 4.087] | ≤0.5 µg/mL | 1 µg/mL (≈ 2.29 µM) |
| CNc1cc(F)cc2c1[nH]c1nc(Oc3cnc(C)nc3)nc(N3CCCC(C)(N)C3)c12 (stereo not shown) [Compound 4.088] | ≤0.5 µg/mL | 1 µg/mL (≈ 2.29 µM) |
| CNc1cc(F)cc2c1[nH]c1nc(Oc3cnc(C)nc3)nc(N3C4CCC3CC(N)C4)c12 (stereo not shown) [Compound 4.091] | ≤0.5 µg/mL | 1 µg/mL (≈ 2.23 µM) |
| CNc1cc(F)cc2c1[nH]c1nc(Oc3cnc(C)nc3)nc(N3CC4CCNC4C3)c12 (stereo not shown) [Compound 4.094] | ≤0.5 µg/mL | ≤0.5 µg/mL |
| CNc1cc(F)cc2c1[nH]c1nc(Oc3cnc(C)nc3)nc(N3C[C@@H]4C(N)CC(C)(C)[C@@H]4C3)c12 (stereo partly shown) [Compound 4.097] | ≤0.5 µg/mL | 2 µg/mL (≈ 4.2 µM) |
| CNc1cc(F)cc2c1[nH]c1nc(Oc3cnc(C)nc3)nc(N3CC4CC4(CN)C3)c12 (stereo not shown) [Compound 4.098] | ≤0.5 µg/mL | 1 µg/mL (≈ 2.3 µM) |
| CNc1cc(F)cc2c1[nH]c1nc(Oc3cnc(C)nc3)nc(N3CC4CCC(N)C4(C)C3)c12 (stereo not shown) [Compound 4.099] | ≤0.5 µg/mL | 4 µg/mL (≈ 8.65 µM) |
| CNc1cc(F)cc2c1[nH]c1nc(Oc3cnc(C)nc3)nc(N3CC4(CCC4N)C3)c12 (stereo not shown) [Compound 4.100] | ≤0.5 µg/mL | ≤0.5 µg/mL |
| CNc1cc(F)cc2c1[nH]c1nc(Oc3cnc(C)nc3)nc(N3CC4CC(N)CC4C3)c12 (stereo not shown) [Compound 4.104] | ≤0.5 µg/mL | ≤0.5 µg/mL |
| CNc1cc(F)cc2c1[nH]c1nc(Oc3cnc(C)nc3)nc(N3CC4C(CN)C4C3)c12 (stereo not shown) [Compound 4.106] | ≤0.5 µg/mL | 2 µg/mL (≈ 4.6 µM) |
| CNc1cc(F)cc2c1[nH]c1nc(Oc3cnc(C)nc3)nc(N3CCC4(CC3)NC(=O)NC4=O)c12 [Compound 4.107] | >16 µg/mL | >16 µg/mL |
| CNc1cc(F)cc2c1[nH]c1nc(Oc3cnc(C)nc3)nc(NCCCN)c12 [Compound 4.108] | 4 µg/mL (≈ 10.1 µM) | >16 µg/mL |
| CNc1cc(F)cc2c1[nH]c1nc(Oc3cnc(C)nc3)nc(N3CC4CCC(CN)C4C3)c12 (stereo not shown) [Compound 4.112] | ≤0.5 µg/mL | 1 µg/mL (≈ 2.16 µM) |
| CNc1cc(F)cc2c1[nH]c1nc(Oc3cnc(C)nc3)nc(N3CC4NCCOC4C3)c12 (stereo not shown) [Compound 4.114] | ≤0.5 µg/mL | 2 µg/mL (≈ 4.44 µM) |
| CNc1cc(F)cc2c1[nH]c1nc(Oc3cnc(C)nc3)nc(N3C[C@H](N)C[C@@H]3C)c12 [Compound 4.115] | 1 µg/mL (≈ 2.37 µM) | 8 µg/mL (≈ 18.9 µM) |
| CNc1cc(F)cc2c1[nH]c1nc(Oc3cnc(C)nc3)nc(N3CC4CCNC4(C)C3)c12 (stereo not shown) [Compound 4.116] | ≤0.5 µg/mL | ≤0.5 µg/mL |
| CNc1cc(F)cc2c1[nH]c1nc(Oc3cnc(C)nc3)nc(N3CC4CONC4C3)c12 (stereo not shown) [Compound 4.122] | ≤0.5 µg/mL | 1 µg/mL (≈ 2.29 µM) |
| CNc1cc(F)cc2c1[nH]c1nc(Oc3cnc(C)nc3)nc(N3CCC4(CNC4)C3)c12 [Compound 4.125] | ≤0.5 µg/mL | 4 µg/mL (≈ 9.21 µM) |
| CNc1cc(F)cc2c1[nH]c1nc(Oc3cnc(C)nc3)nc(N3CCC4(CCNC4)C3)c12 (stereo not shown) [Compound 4.126] | ≤0.5 µg/mL | 2 µg/mL (≈ 4.46 µM) |

| Compound | MIC Sa (S. aureus ATCC 13709) | MIC Ec (E. coli ATCC 25922) |
| --- | --- | --- |
| CNc1cc(F)cc2c1[nH]c1nc(Oc3cnc(C)nc3)nc(N(C)C3CNC3)c12 [Compound 4.134] | >16 µg/mL | >16 µg/mL |
| CNc1cc(F)cc2c1[nH]c1nc(Oc3cnc(C)nc3)nc(N3CCC(C)(N)CC3)c12 [Compound 4.135] | ≤0.5 µg/mL | 1 µg/mL (≈ 2.29 µM) |
| CNc1cc(F)cc2c1[nH]c1nc(Oc3cnc(C)nc3)nc(N3CC(N)C3)c12 [Compound 4.138] | ≤0.5 µg/mL | ≤0.5 µg/mL |
| CNc1cc(F)cc2c1[nH]c1nc(Oc3cnc(C)nc3)nc(N3CCC4(CCC4N)CC3)c12 (stereo not shown) [Compound 4.139] | ≤0.5 µg/mL | ≤0.5 µg/mL |
| CNc1cc(F)cc2c1[nH]c1nc(Oc3cnc(C)nc3)nc(N3CC(CN)C3)c12 [Compound 4.143] | ≤0.5 µg/mL | 2 µg/mL (≈ 4.9 µM) |
| CNc1cc(F)cc2c1[nH]c1nc(Oc3cnc(C)nc3)nc(N3CC4CC(N)C3C4)c12 (stereo not shown) [Compound 4.148] | ≤0.5 µg/mL | 4 µg/mL (≈ 9.21 µM) |
| CNc1cc(F)cc2c1[nH]c1nc(Oc3cnc(C)nc3)nc(N3CC4(CCCNC4)C3)c12 [Compound 4.149] | ≤0.5 µg/mL | 2 µg/mL (≈ 4.46 µM) |
| CNc1cc(F)cc2c1[nH]c1nc(Oc3cnc(C)nc3)nc(N3CCC(N)C(C)(C)C3)c12 (stereo not shown) [Compound 4.152] | ≤0.5 µg/mL | 1 µg/mL (≈ 2.22 µM) |
| CNc1cc(F)cc2c1[nH]c1nc(Oc3cnc(C)nc3)nc(N3CC4(CC(N)C4)C3)c12 [Compound 4.153] | ≤0.5 µg/mL | 2 µg/mL (≈ 4.6 µM) |
| CNc1cc(F)cc2c1[nH]c1nc(Oc3cnc(C)nc3)nc(N3CC4CCNC4C3)c12 (stereo not shown) [Compound 4.156] | ≤0.5 µg/mL | ≤0.5 µg/mL |
| CNc1cc(F)cc2c1[nH]c1nc(Oc3cnc(C)nc3)nc(N3CC(N4CC(N)C4)C3)c12 [Compound 4.158] | ≤0.5 µg/mL | 4 µg/mL (≈ 8.9 µM) |
| CNc1cc(F)cc2c1[nH]c1nc(Oc3cnc(C)nc3)nc(N3CCC(F)(CN)CC3)c12 [Compound 4.159] | ≤0.5 µg/mL | ≤0.5 µg/mL |
| CNc1cc(F)cc2c1[nH]c1nc(Oc3cnc(C)nc3)nc(-c3ccc(Cl)cc3N)c12 [Compound 4.161] | ≤0.5 µg/mL | ≤0.5 µg/mL |
| CNc1cc(F)cc2c1[nH]c1nc(Oc3cnc(C)nc3)nc(C3=CCNCC3)c12 [Compound 4.162] | 8 µg/mL (≈ 19.7 µM) | >16 µg/mL |
| CNc1cc(F)cc2c1[nH]c1nc(Oc3cnc(C)nc3)nc(N3CCNCC3)c12 [Compound 4.163] | ≤0.5 µg/mL | ≤0.5 µg/mL |
| CNc1cc(F)cc2c1[nH]c1nc(Oc3cncc(OC)c3)nc(N3CC4C(N)C4C3)c12 (stereo not shown) [Compound 4.164] | ≤0.5 µg/mL | 1 µg/mL (≈ 2.3 µM) |
| CNc1cc(F)cc2c1[nH]c1nc(Oc3cncc(OC)c3)nc(N3CC4CC(N)C4C3)c12 (stereo not shown) [Compound 4.167] | ≤0.5 µg/mL | ≤0.5 µg/mL |
| CNc1cc(F)cc2c1[nH]c1nc(Oc3cncc(-c4nnnn4C)c3)nc(N3CC4C(N)C4C3)c12 (stereo not shown) [Compound 4.168] | ≤0.5 µg/mL | 2 µg/mL (≈ 4.1 µM) |
